Measured values reported in patent publication US20160008490A1, “METAL CHELATE COMPOUNDS FOR BINDING TO THE PLATELET SPECIFIC GLYCOPROTEIN IIB/IIIA” (BAYER PHARMA AKTIENGESELLSCHAFT, priority 2013, published 2016).

Columns and labels:
[1] = biological target: T1, human GP IIb/IIIa receptor (Homo sapiens, UniProt P05106+P08514); assay: GPIIb/IIIa affinity assay (displacement of tritiated reference compound from immobilized receptor); assay type: binding; settings: purified human GPIIb/IIIa, 60 nM 3H-labeled reference compound, 1 hour at room temperature
T1 construct: human GPIIb/IIIa purified from human platelets was immobilized on a 96-well solid plate; purchased Enzyme Research Laboratories Inc. (South Bend, Ind.); host or cells: human platelets (natural source, detergent-solubilised)
T1 sequence (P08514 32-887 limits assumed): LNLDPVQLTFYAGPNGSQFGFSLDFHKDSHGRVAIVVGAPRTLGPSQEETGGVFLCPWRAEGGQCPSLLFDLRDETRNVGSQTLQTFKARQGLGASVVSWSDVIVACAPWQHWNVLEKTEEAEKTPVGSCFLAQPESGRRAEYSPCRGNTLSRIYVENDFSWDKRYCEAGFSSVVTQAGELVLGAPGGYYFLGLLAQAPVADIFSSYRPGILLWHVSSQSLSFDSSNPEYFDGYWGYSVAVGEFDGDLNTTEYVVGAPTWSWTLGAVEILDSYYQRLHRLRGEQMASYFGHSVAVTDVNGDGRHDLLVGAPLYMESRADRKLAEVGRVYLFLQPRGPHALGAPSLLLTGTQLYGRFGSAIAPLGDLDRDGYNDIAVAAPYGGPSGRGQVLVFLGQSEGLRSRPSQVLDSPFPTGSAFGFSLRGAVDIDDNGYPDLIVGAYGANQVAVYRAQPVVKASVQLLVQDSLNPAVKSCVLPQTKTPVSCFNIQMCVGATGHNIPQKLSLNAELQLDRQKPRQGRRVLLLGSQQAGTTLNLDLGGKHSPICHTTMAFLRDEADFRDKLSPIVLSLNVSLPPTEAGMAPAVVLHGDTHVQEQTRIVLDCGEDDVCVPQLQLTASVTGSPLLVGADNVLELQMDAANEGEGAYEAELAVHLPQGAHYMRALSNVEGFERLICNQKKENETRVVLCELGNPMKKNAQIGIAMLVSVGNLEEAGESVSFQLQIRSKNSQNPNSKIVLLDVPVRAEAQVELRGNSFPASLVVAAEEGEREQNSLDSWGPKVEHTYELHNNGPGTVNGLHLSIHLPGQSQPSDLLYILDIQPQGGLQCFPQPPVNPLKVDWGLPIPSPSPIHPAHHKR
T1 sequence (P08514 891-1039 partner limits assumed): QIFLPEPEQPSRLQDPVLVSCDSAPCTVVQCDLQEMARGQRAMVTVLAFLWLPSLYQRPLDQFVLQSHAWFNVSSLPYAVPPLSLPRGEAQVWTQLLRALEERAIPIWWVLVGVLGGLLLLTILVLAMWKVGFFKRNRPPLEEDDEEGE
T1 sequence (P05106 27-788): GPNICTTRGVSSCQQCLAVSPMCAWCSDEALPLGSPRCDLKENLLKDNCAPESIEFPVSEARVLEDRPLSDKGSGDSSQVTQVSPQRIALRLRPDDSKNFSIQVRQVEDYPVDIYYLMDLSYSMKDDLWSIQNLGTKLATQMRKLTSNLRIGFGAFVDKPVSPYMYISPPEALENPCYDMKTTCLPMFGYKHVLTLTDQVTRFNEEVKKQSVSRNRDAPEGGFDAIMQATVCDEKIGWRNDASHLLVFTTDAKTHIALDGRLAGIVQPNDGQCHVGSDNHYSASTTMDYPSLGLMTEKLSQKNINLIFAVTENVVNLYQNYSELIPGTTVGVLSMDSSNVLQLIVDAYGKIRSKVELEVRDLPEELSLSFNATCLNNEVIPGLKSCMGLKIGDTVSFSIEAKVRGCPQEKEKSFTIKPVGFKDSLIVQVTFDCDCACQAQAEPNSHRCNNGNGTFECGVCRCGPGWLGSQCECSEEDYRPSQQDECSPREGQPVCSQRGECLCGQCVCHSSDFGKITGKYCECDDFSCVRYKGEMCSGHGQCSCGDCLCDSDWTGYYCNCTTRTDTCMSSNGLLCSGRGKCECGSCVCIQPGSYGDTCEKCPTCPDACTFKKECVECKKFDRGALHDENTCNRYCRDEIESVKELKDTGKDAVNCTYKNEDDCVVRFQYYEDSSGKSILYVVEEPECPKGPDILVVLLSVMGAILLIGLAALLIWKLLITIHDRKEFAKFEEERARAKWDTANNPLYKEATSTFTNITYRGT
Procedure: Affinity assay: In the first step human GPIIb/IIIa purified from human platelets was immobilized on a 96-well solid plate. After 48 hours the plates were washed and the unspecific binding sites were blocked with Roti®-Block. 2. In the next step, the plates were simultaneously incubated with a tritium labeled known GPIIb/IIIa binder (^3H) mixed with increasing concentrations of the novel compounds (inhibitor). The higher the affinity of the inhibitor, the lower the bound fraction of the tritiated known GPIIb/IIIa binder (^3H) was. The fraction of tritiated compound (^3H), which is not displaced by inhibitor, was measured in a microplate scintillation counter.
Purified human glycoprotein IIb/IIIa (20 mM Tris-HCl, 0.1 M NaCl, 0.1% Triton X-100, 1 mM CaCl2, 0.05% NaN3, 50% Glycerol, pH 7.4) was purchased from Enzyme Research Laboratories Inc. (South Bend, Ind.). The GPIIb/IIIa receptor was diluted in phosphate-buffered saline (Dulbecco's Phosphate Buffered Saline (D-PBS (+)) with calcium and magnesium, GIBCO®, Invitrogen) with 0.01% bovine serum albumin (albumin from bovine serum—lyophilized powder, 96%, Sigma).
The GPIIb/IIIa receptor was immobilized 48 hours at least (100 μL per well, 48 to maximum 96 hours) on a 96-well solid plate (Immuno Plate MaxiSorp™, Nunc, Roskilde, Denmark) at 277 K to 280 K and at a concentration of 0.1 μg per well to 1 μg per well. As negative control one row of the plate (n=8) was incubated just with 2% bovine serum albumin (200 μL per well, albumin from bovine serum—lyophilized powder, ≧96%, Sigma, diluted in D-PBS (+)).
After washing three times with the wash buffer (230 μL per well, Dulbecco's Phosphate Buffered Saline (D-PBS (−)) contains no calcium or magnesium, GIBCO®, Invitrogen) residual exposed plastic and unspecific binding sites were blocked by incubating the plate with a special blocking solution (200 μL per well, Roti®-Block, Car Roth GmbH Co KG, Karlsruhe) containing 2% bovine serum albumin (Albumin from bovine serum—lyophilized powder, ≧96%, Sigma) 1 hour at room temperature.
After washing three times with the wash buffer 50 μL of tritiated reference compound (60 nM, ^3H-labeled compound) and 50 μL of novel compound (inhibitor) were simultaneously added to each well and incubated for 1 hour at room temperature. Several concentrations of each novel inhibitor (0.1, 1, 2, 5, 10, 20 50, 100, 200, 500, 1000, 2000, 5000, 10000 and 20000 nM) were investigated. At each concentration of inhibitor a fourfold determination was performed.
The maximum value of tritiated reference compound was determined without addition of inhibitor (n=8). To exclude unspecific binding of ^3H— reference compound wells without glycoprotein receptors were used as negative controls (n=12, identically treated just without GPIIb/IIIa receptors).
After one hour the plate was washed three times with phosphate-buffered saline (200 μL per well, Dulbecco's Phosphate Buffered Saline (D-PBS (+)), GIBCO®, Invitrogen). Following 140 μL of liquid scintillation cocktail (MicroScint™ 40 aqueous, Perkin Elmer) was added to each well. After 15 min at room temperature the plates were measured at the microplate scintillation counter (TopCount NXT v2.13, Perkin Elmer, Packard Instrument Company).
In the first step human glycoprotein IIb/IIIa, which is purified from human platelets, was immobilized on a 96-well solid plate. After 48 hours at least the plates were washed and the unspecific binding sites were blocked with Roti®-Block. In the next step, the plates were simultaneously incubated with a tritium labeled reference compound and the novel small molecule compound (inhibitor). The higher the affinity of the inhibitor, the smaller is the bound fraction of reference compound. The fraction of tritiated reference compound, which is not displaced by inhibitor, was measured at a microplate scintillation counter. The higher the affinity of the inhibitor, the smaller is the bound fraction of tritium-labeled reference compound. […]

[2] = test system: human activated platelets; assay: Binding of investigated compounds to human activated platelets (ICP-MS of Gd in pellet and supernatant); assay type: cell-based; settings: ADP-activated platelet-rich plasma, 20 minutes
Procedure: For each experiment fresh blood was taken from a volunteer using 10 mL citrate-tubes (Sarstedt S-Monovette 02.1067.001, 10 mL, Citrate 3.13%). The 10 mL citrate-tubes were carefully inverted 10 times to mix blood and anticoagulant. The tubes were stored in an incubator at a temperature of 37° C. until centrifugation (Heraeus miniTherm CTT with integrated rotation- and turning device, turning speed: 19 rotations per minute, Heraeus Instruments GmbH, Hanau/Germany).
For plasma preparation tube centrifugation was carried out for 15 minutes at 1811 g at room temperature (Eppendorf, Centrifuge 5810R). Blood was centrifuged 15 minutes at 201 g at room temperature to produce platelet-rich plasma. The tubes were stored for 30 min at room temperature to get a better separation. The separated platelet-rich plasma was finally centrifuged for further 3 min at 453 g to remove the remaining erythrocytes. The platelet-rich plasma was activated using a final concentration of 5 μM Adenosindiphosphate (ADP, Sigma). The activated platelet-rich plasma was incubated 20 minutes with different concentrations of gadolinium-labeled compound and subsequently was centrifuged 3 minutes at 1360 g. 20 μL of incubation solution was taken to determine the concentration (n=3). […] The gadolinium concentration of supernatant and pellet was determined using an inductively coupled plasma mass spectrometry (ICP-MS Agilent 7500a).
The results for incubation concentration of 1 μM gadolinium-labeled compound are summarized in table 3 (in comparison to Gadovist® standard dose: 100 μmol Gd/kg body weight).

[3] = incubation concentration 1 μM molecule, pellet washed
[4] = incubation concentration 1 μM molecule, pellet was not washed

SMILES	IC50 [1] [nM]	Concentration within platelet pellet ([2]; incubation concentration 0.8 μM molecule, pellet washed) [μM Gd]	Concentration within platelet pellet [2, 3] [μM Gd]	Concentration within platelet pellet [2, 4] [μM Gd]
CC(C(=O)NCC(=O)NCC(NC(=O)CNC(=O)C(C)N1CCN(CC(=O)O)CCN(CC(=O)O)CCN(CC(=O)O)CC1)C(=O)NCC(NC(=O)C(CNC(=O)CNC(=O)C(C)N1CCN(CC(=O)O)CCN(CC(=O)O)CCN(CC(=O)O)CC1)NC(=O)CNC(=O)C(C)N1CCN(CC(=O)O)CCN(CC(=O)O)CCN(CC(=O)O)CC1)C(=O)NCCCCc1cccc(CCc2cncc([C@H](CC(=O)O)NC(=O)[C@@H]3CCCN(C(=O)CCC4CCNCC4)C3)c2)c1)N1CCN(CC(=O)O)CCN(CC(=O)O)CCN(CC(=O)O)CC1 (stereo partly drawn) [Example 9, Tetragadolinium 2,3-bis({2,3-bis[(N-{2-[4,7,10-tris(carboxylatomethyl)-1,4,7,10-tetraazacyclododecan-1-yl]propanoyl}glycyl)amino]propanoyl}amino)-N-(4-{3-[(5-{(1S)-2-carboxy-1-[({(3R)-1-[3-(piperidin-4-yl)propanoyl]piperidin-3-yl}carbonyl)amino]ethyl}pyridin-3-yl)ethyl]phenyl}butyl)propanamide]	32	21.1 ± 9.6	–	–
C[C@@H](C(=O)NCC(=O)OCCC#Cc1cncc([C@H](CC(=O)O)NC(=O)[C@@H]2CCCN(C(=O)CCC3CCNCC3)C2)c1)N1CCN(CC(=O)O)CCN(CC(=O)O)CCN(CC(=O)O)CC1 [Example 1, Gadolinium 2,2′,2″-(10-{(2S)-1-[(2-{[4-(5-{(1S)-2-carboxy-1-[({(3R)-1-[3-(piperidin-4-yl)-propanoyl]piperidin-3-yl}carbonyl)amino]ethyl}pyridin-3-yl)but-3-yn-1-yl]oxy}-2-oxo-ethyl)amino]-1-oxopropan-2-yl}-1,4,7,10-tetraazacyclododecane-1,4,7-triyl)triacetate]	29	–	–	–
CC(C(=O)NCC(=O)NCC(NC(=O)CNC(=O)C(C)N1CCN(CC(=O)O)CCN(CC(=O)O)CCN(CC(=O)O)CC1)C(=O)NCC(NC(=O)C(CNC(=O)CNC(=O)C(C)N1CCN(CC(=O)O)CCN(CC(=O)O)CCN(CC(=O)O)CC1)NC(=O)CNC(=O)C(C)N1CCN(CC(=O)O)CCN(CC(=O)O)CCN(CC(=O)O)CC1)C(=O)NCCCc1ccc(C#Cc2cncc([C@H](CC(=O)O)NC(=O)[C@@H]3CCCN(C(=O)CCC4CCNCC4)C3)c2)cc1)N1CCN(CC(=O)O)CCN(CC(=O)O)CCN(CC(=O)O)CC1 (stereo partly drawn) [Example 11, Tetragadolinium 2,3-bis({2,3-bis[(N-{2-[4,7,10-tris(carboxylatomethyl)-1,4,7,10-tetraaza-cyclododecan-1-yl]propanoyl}glycyl)amino]propanoyl}amino)-N-(3-{4-[(5-{(1S)-2-carboxy-1-[({(3R)-1-[3-(piperidin-4-yl)propanoyl]piperidin-3-yl}carbonyl)amino]ethyl}-pyridin-3-yl)ethynyl]phenyl}propyl)propanamide]	26	–	19.9 ± 0.9	–

These reach a lower IC50 [1]. Values come first.

IC50 [1] [nM]	SMILES	Concentration within platelet pellet ([2]; incubation concentration 0.8 μM molecule, pellet washed) [μM Gd]	Concentration within platelet pellet [2, 3] [μM Gd]	Concentration within platelet pellet [2, 4] [μM Gd]
25	C[C@@H](C(=O)NCC(=O)NCCCCCCc1ccc(CCc2cncc([C@H](CC(=O)O)NC(=O)[C@@H]3CCCN(C(=O)CCC4CCNCC4)C3)c2)cc1)N1CCN(CC(=O)O)CCN(CC(=O)O)CCN(CC(=O)O)CC1 [Example 4, Gadolinium 2,2′,2″-{10-[(2S)-1-({2-[(6-{4-[(5-{(1S)-2-carboxy-1-[({(3R)-1-[3-(piperidin-4-yl)propanoyl]piperidin-3-yl}carbonyl)amino]ethyl}pyridin-3-yl)ethyl]phenyl}hexyl)-amino]-2-oxoethyl}amino)-1-oxopropan-2-yl]-1,4,7,10-tetraazacyclododecane-1,4,7-triyl}triacetate]	–	3.8 ± 0.2	–
24	C[C@@H](C(=O)NCC(=O)NCCC#Cc1cncc([C@H](CC(=O)O)NC(=O)[C@@H]2CCCN(C(=O)CCC3CCNCC3)C2)c1)N1CCN(CC(=O)O)CCN(CC(=O)O)CCN(CC(=O)O)CC1 [Example 2, Gadolinium 2,2′,2″-(10-{(2S)-1-[(2-{[4-(5-{(1S)-2-carboxy-1-[({(3R)-1-[3-(piperidin-4-yl)-propanoyl]piperidin-3-yl}carbonyl)amino]ethyl}pyridin-3-yl)but-3-yn-1-yl]amino}-2-oxo-ethyl)amino]-1-oxopropan-2-yl}-1,4,7,10-tetraazacyclododecane-1,4,7-triyl)triacetate]	–	–	8.1 ± 0.6
16	CC(C(=O)NCC(=O)NC[C@H](NC(=O)CNC(=O)C(C)N1CCN(CC(=O)O)CCN(CC(=O)O)CCN(CC(=O)O)CC1)C(=O)NCCCc1ccc(C#Cc2cncc([C@H](CC(=O)O)NC(=O)[C@@H]3CCCN(C(=O)CCC4CCNCC4)C3)c2)cc1)N1CCN(CC(=O)O)CCN(CC(=O)O)CCN(CC(=O)O)CC1 (stereo partly drawn) [Example 10, Digadolinium N-{2-[4,7,10-tris(carboxylatomethyl)-1,4,7,10-tetraazacyclododecan-1-yl]-propanoyl}glycyl-N-(3-{4-[(5-{(1S)-2-carboxy-1-[({(3R)-1-[3-(piperidin-4-yl)propanoyl]-piperidin-3-yl}carbonyl)amino]ethyl}pyridin-3-yl)ethynyl]phenyl}propyl)-3-[(N-{2-[4,7,10-tris(carboxylatomethyl)-1,4,7,10-tetraazacyclododecan-1-yl]propanoyl}glycyl)-amino]alaninamide]	–	13.9 ± 0.3	–
13	C[C@@H](C(=O)NCC(=O)NCCCCCCc1ccc(C#Cc2cncc([C@H](CC(=O)O)NC(=O)[C@@H]3CCCN(C(=O)CCC4CCNCC4)C3)c2)cc1)N1CCN(CC(=O)O)CCN(CC(=O)O)CCN(CC(=O)O)CC1 [Example 3, Gadolinium 2,2′,2″-{10-[(2S)-1-({2-[(6-{4-[(5-{(1S)-2-carboxy-1-[({(3R)-1-[3-(piperidin-4-yl)propanoyl]piperidin-3-yl}carbonyl)amino]ethyl}pyridin-3-yl)ethynyl]phenyl}hexyl)-amino]-2-oxoethyl}amino)-1-oxopropan-2-yl]-1,4,7,10-tetraazacyclododecane-1,4,7-triyl}triacetate]	–	–	8.3 ± 2.1
